ChEMBL document CHEMBL5634145, “Discovery of novel amidobenzimidazole derivatives as orally available small molecule modulators of stimulator of interferon genes for cancer immunotherapy” (Eur J Med Chem, 2023)

Tests used:
[1] = Cytotoxicity against human THP1-Dual KO-STING cells assessed as cell viability incubated for 24 hrs by CellTiter 96 aqueous one solution assay relative to control; type: toxicity, cell-based; design: concentration or dose not given beside the values; details: read-out: Activity
[2] = Cytotoxicity against wild type human THP1-Dual cells assessed as cell viability incubated for 24 hrs by CellTiter 96 aqueous one solution assay relative to control; type: toxicity, cell-based; design: concentration or dose not given beside the values; details: read-out: Activity
[3] = biological target: Stimulator of interferon genes protein (Homo sapiens, UniProt Q86WV6); assay: Agonist activity at STING in wild type human THP1-Dual cells assessed as increase in IRF-mediated immune response incubated for 24 hrs by QUANTI-Luc assay; type: cell-based
Stimulator of interferon genes protein, sequence (Q86WV6 whole entry): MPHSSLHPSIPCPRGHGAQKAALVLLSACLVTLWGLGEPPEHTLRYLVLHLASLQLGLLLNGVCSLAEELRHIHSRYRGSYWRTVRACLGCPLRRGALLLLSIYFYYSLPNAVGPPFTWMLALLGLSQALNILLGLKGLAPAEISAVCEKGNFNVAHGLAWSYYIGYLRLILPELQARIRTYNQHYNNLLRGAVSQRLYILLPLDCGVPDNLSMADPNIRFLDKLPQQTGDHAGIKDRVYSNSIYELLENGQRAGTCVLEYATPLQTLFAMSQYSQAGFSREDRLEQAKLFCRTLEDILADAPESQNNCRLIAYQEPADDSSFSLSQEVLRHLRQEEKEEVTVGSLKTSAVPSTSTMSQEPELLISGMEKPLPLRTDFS

[4] = Agonist activity at STING (unknown origin)

EC50 [3]	EC50 [4]	Structure (SMILES)	viability at 24 h [1]	viability at 24 h [2]
9.2 µM	–	CCn1nc(C)cc1C(=O)Nc1nc2cc(C(N)=O)ccc2n1CCCCn1c(NC(=O)c2cc(C)nn2CC)nc2cc(C(N)=O)ccc21	117%	101%
–	–	Nc1nc2c(ncn2[C@@H]2O[C@@H]3COP(=O)(O)O[C@H]4[C@@H](O)[C@H](n5cnc6c(N)ncnc65)O[C@@H]4COP(=O)(O)O[C@H]3[C@H]2O)c(=O)[nH]1	97.2%	87%
–	102 µM	CCn1nc(C)cc1C(=O)/N=c1\[nH]c2cc(C(N)=O)ccc2n1C[C@@H](O)c1ccccc1	–	–
19.6 µM	–	CCn1nc(C)cc1C(=O)Nc1nc2cc(C(N)=O)ccc2n1CCCCNC(=O)OC(C)(C)C	105%	69%
–	–	CC(C)(C)OC(=O)NCCCCn1c(NC(=O)c2ccc(F)nc2)nc2cc(C(N)=O)ccc21	107%	102%
–	–	CCc1ncccc1C(=O)Nc1nc2cc(C(N)=O)ccc2n1CCCCNC(=O)OC(C)(C)C	94.7%	89.2%
–	–	Cc1ncccc1C(=O)Nc1nc2cc(C(N)=O)ccc2n1CCCCNC(=O)c1ccccc1	93.8%	101%
–	–	Cc1ncccc1C(=O)Nc1nc2cc(C(N)=O)ccc2n1CCCCCN	99.3%	110%
–	–	CC(C)(C)OC(=O)NCCCCn1c(NC(=O)c2cccnc2F)nc2cc(C(N)=O)ccc21	108%	107%
–	–	COc1cc(C(N)=O)cc2nc(NC(=O)c3ccc(C(F)(F)F)nc3C)n(C/C=C/CNC(=O)OC(C)(C)C)c12	107%	87.5%
–	–	CC(C)(C)OC(=O)NCCCCn1c(NC(=O)c2ccncc2)nc2cc(C(N)=O)ccc21	90.6%	86.9%
–	–	Cc1ccncc1C(=O)Nc1nc2cc(C(N)=O)ccc2n1CCCCNC(=O)OC(C)(C)C	87.8%	88.5%
–	–	CC(C)(C)OC(=O)NCCCCn1c(NC(=O)c2cccnc2Cl)nc2cc(C(N)=O)ccc21	100%	105%
–	–	Cc1ncccc1C(=O)Nc1nc2cc(C(N)=O)ccc2n1CCCCCNC(=O)OC(C)(C)C	92%	92.2%
29.7 µM	–	Cc1nc(C(F)(F)F)ccc1C(=O)Nc1nc2cc(C(N)=O)ccc2n1CCCCNC(=O)OC(C)(C)C	97.5%	106%
–	–	CC(C)(C)OC(=O)NCCCCn1c(NC(=O)c2cccnc2C(F)(F)F)nc2cc(C(N)=O)ccc21	102%	108%
